Measured values as given in PMC4492750, “The discovery of a selective and potent A2a agonist with extended lung retention” (Pharmacology Research & Perspectives, 2015).
pEC50, pIC50: −log10 of the molar value. Entries after “also recorded” stand apart in the source; their conditions may differ.

How the values were obtained:
[1] = test system: LPS-induced TNFα production in human PBMC; experiment: LPS-induced TNFα production in primary human PBMC (hTNFα PBMC); format: cell-based
Description: (§1) • Human A2a and A2b receptor pharmacology: Chinese hamster ovary CHO-K1 cells stably expressing human A2a and A2b receptors were used to determine substances agonistic potency and intrinsic activity. […] The signal corresponding to adenosine at 100 μmol/L was used to define 100% intrinsic activity. • Human A3 receptor pharmacology: A3 receptor Gi coupling was measured by GTPγ ^35[S] filter assay at serial dilutions of compound using membranes from Perkin-Elmer. The signal corresponding to the maximal response of NECA at 100 μmol/L was set to 100% intrinsic activity. • Lipopolysaccharide (LPS)-induced TNFα production in primary human peripheral blood mononuclear cells (hTNFα PBMC) and rat mononuclears (rTNFα splenocytes): Human PBMC and rat mononuclear spleen cells were incubated with serial dilutions of compound and stimulated with LPS.
Procedures and assays were run in R10 buffer (RPMI 1640 Medium supplemented with GlutaMAX™ and HEPES (GIBCO-BRL), 10% fetal calf serum, penicillin and streptomycin (each 5000IU/ml)). Human PBMC were purified from heparinised blood by Ficoll separation (Ficoll, Amersham Pharmacia Biotech AB, Cat: 17-1440-03, Lot: 312170) and rat mononuclear cells were collected after rat spleen perfusion. Both cell preparations were followed by hypotonic lysis of residual erythrocytes. Serial dilutions of compounds were pre-incubated with 200 000 cells/well (96-well plate) for 45min in 37 °C (190µl). Cells were stimulated by 10µl LPS (final concentration 0.5ng/ml human and 150ng/ml rat; SIGMA Cat: L-4516, Lot: 104K4036) for 18h at 37 °C. TNFα release was measured by ELISA (^TmR&D Systems plates) according to the manufacturer’s instructions in cell free supernatant.

[2] = Plasma protein binding by equilibrium dialysis; format: in vitro ADME; conditions: male, Wistar, pH 7.4, rat plasma, 10 μmol/L, read-out: fu rat (free unbound drug in plasma)
Description: as §1
The plasma protein binding was determined in plasma from male Wistar rats at a compound concentration of 10μM by equilibrium dialysis against a phosphate buffer at pH 7.4 using a semi-permeable membrane with a molecular cut-off of 6-8KDa (Spectra/Por, Spectrum Laboratories Inc, US). The compounds were dialyzed for 18h at 37±1°C in an air incubator on an orbital shaker. The samples were analysed using LC-MS/MS.

[3] = Lipophilicity (LogD), shake flask; format: physicochemical; conditions: 1-octanol / phosphate buffer, octanol-water, phosphate buffer pH 7.4
Description: as §1
The octanol-water partition coefficient (LogD) was measured using the shake flask method. 600µL of 1-octanol was added to a vial with 6µL of 10mM DMSO-solution of the test compound. 600µL of 10mM sodium phosphate buffer adjusted to pH 7.4 was added and equilibrium was performed by vigorous shaking for ten minutes with an Eppendorf mixer. The phases were separated by centrifugation. The samples were analysed by HPLC with UV-detection at 254nm.

heart = experiment: Investigative rat toxicology study (heart histopathology); format: in vivo
Description: Rats were intratracheally administrated with compound 2 at 150µg/kg and terminated 24 hours after dosing. Rats in the repeated dose groups received compound 2 at dose level of 1 or 30µg/kg for 4 consecutive days and were terminated 24 hours after the last dose.
The animals were sacrificed by exsanguinations from the common carotid artery under isoflurane anesthesia. The external features were inspected and body weights recorded. The lung together with lower part of the trachea was excised from the thoracic cavity, weighed, and inflated with Formalin via the trachea. Other core organs (heart, kidneys, liver and spleen) were also macroscopically examined, weighed and fixed in buffered Formalin. The collected organs were trimmed and processed to paraffin blocks, sectioned (4µm) and stained with Hematoxylin Eosin (HE) for microscopic examination. Additional heart sections from each animal were collected for immunohistochemistry of Troponin T (see below) and for Masson's Trichrome stain.
The IHC was performed by using Ventanan Discovery XT automated slide processing system, according to the manufacturer’s instructions. In brief, after the antigen retrieval process (Std CC1), the Troponin T antibody (Thermo Scientific, MS-295-P1 diluted 1:50 in Antibody Diluent) was applied on the sections for 60 minutes, followed by incubation with rabbit monoclonal anti-mouse (Epitomics catalog no 3021-1) for 60 minutes and a polymer OmniMap-anti-rabbit HRP Multimer for 16 minutes. The reaction was visualized by using ChromoMap DAB kit. The slides were dehydrated in rising concentration of ethanol, cleared in xylene in an Automatic slide strainer (Sakura, US) and mounted manually with Mountex (00842, Histolab Products AB, Sweden).

A3 = target: T1, A3 (Homo sapiens, UniProt P0DMS8); experiment: Human A3 receptor pharmacology: GTPγ35[S] filter assay on membranes; format: biochemical; design: purchased Perkin Elmer ES-012-M400UA; conditions: average (SD)
T1 sequence (P0DMS8 1-318): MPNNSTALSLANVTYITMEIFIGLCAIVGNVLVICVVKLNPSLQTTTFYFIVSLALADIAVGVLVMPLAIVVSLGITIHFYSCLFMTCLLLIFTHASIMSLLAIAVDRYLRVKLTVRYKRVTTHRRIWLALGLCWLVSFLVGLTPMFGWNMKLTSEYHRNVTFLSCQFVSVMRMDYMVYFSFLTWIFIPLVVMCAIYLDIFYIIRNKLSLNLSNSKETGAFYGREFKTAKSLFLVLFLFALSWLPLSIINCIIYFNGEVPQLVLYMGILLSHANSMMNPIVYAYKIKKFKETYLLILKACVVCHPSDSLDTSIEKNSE
Description: as §1
A3 receptor Gi coupling was measured by GTPγ ^35[S] filter assay using membrane from Perkin Elmer (ES-012-M400UA). Membranes (7.5μg/ml final concentration) were incubated with substances in serial dilutions (50mM Hepes, pH 7.4, 5mM MgCl2, 100mM NaCl, 0.01% BSA, 100μM DTT and 25μM GDP) including 1nM of GTPγ ^35[S] (Perkin Elmer - NEG030H) for 2h in room temperature in the assay plate (Corning – 3365). […] After adding 50µl scintillant/well, sealed plates were counted. […]

fraction unbound at 18 h, 10 μM [2]: 0.44
logD at 10 min [3]: < -1
pEC50 (A3): 5.18
Structure (SMILES): CCNC(=O)[C@H]1O[C@@H](n2cnc3c(NC(CC)CC)nc(NCCNC(=O)Nc4cc[n+](C)cc4)nc32)[C@H](O)[C@@H]1O [Compound 2, (2S,3S,4R,5R)-N-ethyl-5-[6-(1-ethylpropylamino)-2-[2-[(1-methylpyridin-1-ium-4-yl)carbamoylamino]ethylamino]purin-9-yl]-3,4-dihydroxy-tetrahydrofuran-2-carboxamide]
pEC50 ([1]; Homo sapiens, PBMC, read-out: EC50, inhibition of LPS stimulated TNFα release in human PBMC): 9.30
pIC50 ([1]; LPS-stimulated TNFα release, human PBMC, average (SD)): 9.30
Emax ([1]; LPS-stimulated TNFα release, human PBMC, average (SD), read-out: Human TNFα PBMC Intrinsic activity): 72.4%
Heart changes (heart; 1 μg/kg i.t. for 4 days): No changes were observed
Multifocal scar tissue (dense granulation) in heart (heart; 30 μg/kg i.t. for 4 days): three out of five; also recorded: multifocal dense scar tissue in the heart but no acute myocardial necrosis
Dose level with histopathological heart lesions relative to efficacious dose in inflammatory rat lung model (heart; 30 μg/kg vs 10 μg/kg i.t.): threefold
Heart weight relative to body weight (heart; single dose of 150 μg/kg or repeated doses of 30 μg/kg): slightly increased
Multifocal myocardial necrosis (heart; single i.t. dose 150 μg/kg, one day after dose): four of five; also recorded: caused multifocal myocardial necrosis
